Data published in US9873667B2, “Arylsulfanyl compounds and compositions for delivering active agents” (EMISPHERE TECHNOLOGIES INC., priority 2006, dated 2018).

Legend:
[1] = Oral delivery of LHRH with delivery agent; plasma LHRH concentration; type: in vivo, male Sprague-Dawley rats; conditions: Delivery Agent: 200 mg/kg, LHRH: 1 mg/kg
Experimental: Oral gavage dosing solutions of delivery agent compound and LHRH in phosphate buffer were prepared by mixing. A solution of the delivery agent compound was made either with the sodium salt of the delivery agent compound or by converting the free acid to its sodium salt. A solution of the delivery agent compound was prepared in phosphate buffer and stirred, adding one equivalent of sodium hydroxide (1.0 N) when making the sodium salt. The final dosing solutions were prepared by mixing the delivery agent compound solution with a LHRH stock solution (2.75 ml with a concentration of 20 mg/ml in aqueous solution). The pH was adjusted, if necessary, to between about 7 and 8.8.
(§1) Male Sprague-Dawley rats weighing between about 250-300 g were fasted for 24 hours. A dosing group of five animals was administered one of the dosing solutions. An 11 cm Rusch 8 French catheter was adapted to a 1 ml syringe with a pipette tip. The syringe was filled with the dosing solution by drawing the solution through the catheter, which was then wiped dry. The catheter was placed down the esophagus leaving 1 cm of tubing past the incisors. The dosing solution was administered by pressing the syringe plunger.
Blood samples were collected through retroorbital bleeding of approximately 0.4 ml of blood volume using EDTA tubes at time=0 (pre-dose), 2, 10, 15 and 30 minutes. The five samples from each time period were pooled. Previous studies indicated baseline values of about zero. The maximum absorption at the Tmax is reported below in Table 7. As controls, 4-(3-methyl phenoxy) butyric acid (D.A. “B”), the mesylate salt of (4-(8-(2-hydroxyphenoxy)octyl) morpholine (D.A. “C”), 4-(4-(2-hydroxyphenoxy)butyl) morpholine (D.A. “D”), and 4-(6-(2-hydroxyphenoxy)hexyl) morpholine (D.A. “E”) were also administered according to the same protocol and their results are also shown in FIG. 6.

Blood glucose levels = test: Oral delivery of insulin with delivery agent compound; blood glucose by glucometer; type: in vivo, male Sprague-Dawley rats
Experimental: Insulin stock solution (15 mg/ml) (Human zinc insulin, Calbiochem-Novabiochem Corp., La Jolla, Calif.) was prepared with deionized water. Oral dosing compositions containing 200 mg/kg of delivery agent compound and 0.5 mg/kg of insulin in aqueous solution were prepared with the delivery agent compound shown in Table 1 below. Either the sodium salt of the delivery agent compound was used or the free acid was converted to the sodium salt with one equivalent of sodium hydroxide.
The dosing solution was administered to fasted male Sprague-Dawley rats by oral gavage with an average weight of about 225-250 grams. Blood glucose levels were then determined by glucometer (One Touch Ultra®, LifeScan, Inc.) and compared to vehicle control (1 ml/kg of water). Samples were collected prior to dosing (time 0) and at 15, 30, 45 and 60 minutes after dosing. The % glucose reduction values in Table 1 are values found at the C minimum, and are an average % reduction with respect to the number of times the experiment was run for each delivery agent.
0.5 mg/kg of Insulin and 25-100 mg/kg of delivery agent compound (particular amount shown in Table 2 below) was administered to male Sprague-Dawley rats with an average weight of about 225-250 grams. The purpose of this test was to ascertain the dose response of the delivery agent compound. Glucose reduction was determined as set forth in connection with the data in Table 1.
Insulin Titrations were performed with Delivery Agent 29 in order to gauge the effect of varying dosages of insulin.

[2] = tested on: activated partial thromboplastin time (APTT); test: Intracolonic delivery of heparin with delivery agent; clotting time (APTT); type: in vivo, male Sprague-Dawley rats; conditions: Delivery Agent 50 mg/kg, USP Heparin 25 mg/kg; for Tmax: time of peak APTT
Experimental: Oral gavage and/or intracolonic (IC) dosing solutions containing delivery agent compound and heparin sodium USP were prepared in 25% aqueous propylene glycol. Either the sodium salt of the delivery agent compound was used or the free acid was converted to the sodium salt with one equivalent of sodium hydroxide. The delivery agent compound and heparin (about 166-182 IU/mg) were mixed by vortex as dry powders. This dry mixture was dissolved in 25% v/v aqueous propylene glycol, vortexed, and placed in a sonicator (about 37° C.). The pH was adjusted to about 7 (6.5-8.5) with aqueous NaOH (2N). The dosing solution was sonicated to produce a clear solution. The final volume was adjusted to about 3.0 ml.
as §1, with “about 275-350” for “about 250-300”, “24 hours and anesthetized with ketamine hydrochloride (88 mg/kg) intramuscularly immediately prior to dosing and again as needed to maintain anesthesia.” for “24 hours.”, “animals were” for “animals was”, “solutions. For oral gavage dosing, an” for “solutions. An”, “with” for “with the”
For intracolonic (IC) dosing, a 7.5 cm, 8 French Rusch catheter was adapted to a 1 ml syringe with a pipette tip. The dosing catheter was inserted into the colon through the anus until the tube was no longer visible. The dosing solution was expressed slowly into the colon by pressing the syringe plunger.
Citrated blood samples were collected by cardiac puncture following the administration of ketamine (88 mg/kg), typically at 0.25, 0.5, 1.0 and 1.5 hours after dosing. Heparin absorption was verified by an increase in clotting time measured by the activated partial thromboplastin time (APTT) according to the method of Henry, J. B., Clinical Diagnosis and Management by Laboratory Methods, Philadelphia, Pa., W.B. Saunders (1979), which is hereby incorporated by reference. Previous studies indicated baseline values of about 20 seconds. Results from the animals in each group were averaged for each time points and the highest of these averages (i.e. mean peak APTT) is reported.

[3] = dose response, Delivery Agent Compound 50 mg/kg, Insulin 0.5 mg/kg
[4] = oral gavage, 200 mg/kg Delivery Agent Compound, 0.5 mg/kg Insulin, value at C minimum vs vehicle control

COc1ccccc1SCCCCCC(=O)O [Compound 3, 6-(2-Methoxy-phenylsulfanyl)-hexanoic acid]
Tmax [1]: 5 min | melting point: 81 to 82 °C

COc1ccccc1SCCCCCCCCCC(=O)O [Compound 4, 10-(2-Methoxy-phenylsulfanyl)-decanoic acid]
Tmax [1]: 5 min | melting point: 65 to 66 °C

O=C(O)CCCCCCCSc1ccccc1O [Compound 5, 8-(2-Hydroxy-phenylsulfanyl)-octanoic acid]
% Glucose Reduction (Blood glucose levels; [3]): −13.5% | % Glucose Reduction (Blood glucose levels; dose response, Delivery Agent Compound 100 mg/kg, Insulin 0.5 mg/kg): −18.2% | Tmax [1]: 5 min | melting point: 49 to 50 °C

O=C(O)CCCCCCCCCSc1ccccc1O [Compound 8, 10-(2-Hydroxy-phenylsulfanyl)-decanoic acid]
% Glucose Reduction (Blood glucose levels; dose response, Delivery Agent Compound 25 mg/kg, Insulin 0.5 mg/kg): −9.7% | % Glucose Reduction (Blood glucose levels; [3]): −30.5% | melting point: 58 to 59 °C

Cc1ccc(C)c(SCCC(=O)O)c1 [Compound 9, 3-(2,5-Dimethyl-phenylsulfanyl)-propionic acid]
melting point: 100 to 102 °C

COc1ccc(SCCCCCCCC(=O)O)cc1 [Compound 10, 8-(4-Methoxy-phenylsulfanyl)-octanoic acid]
melting point: 66 to 68 °C

O=C(O)CCCCCCCSc1ccc(O)cc1 [Compound 11, 8-(4-Hydroxy-phenylsulfanyl)-octanoic acid]
APTT (mean peak) [2]: 300.0 s | Tmax [2]: 30.0 min | melting point: 94 to 95 °C

O=C(O)CCCSc1ccccc1O [Compound 12, 4-(2-Hydroxy-phenylsulfanyl)-butyric acid]
melting point: 77 to 78 °C

COc1ccc(SCC(=O)O)cc1 [Compound 13, (4-Methoxy-phenylsulfanyl)-acetic acid]
% Glucose Reduction (Blood glucose levels; [4]): −18.2 ± 17.4%

COc1ccccc1SCCCCCCC(=O)O [Compound 16, 7-(2-Methoxy-phenylsulfanyl)-heptanoic acid]
% Glucose Reduction (Blood glucose levels; [4]): −38.9 ± 32.7%

COc1ccccc1SCCCCC(=O)O [Compound 19, 5-(2-Methoxy-phenylsulfanyl)-pentanoic acid]
% Glucose Reduction (Blood glucose levels; [4]): −33.6 ± 32.4%

COc1cccc(SCCCCCCCCCC(=O)O)c1 [Compound 20, 10-(3-Methoxy-phenylsulfanyl)-decanoic acid]
% Glucose Reduction (Blood glucose levels; [4]): −33.9 ± 41.8%

COc1cccc(SCCCCCC(=O)O)c1 [Compound 21, 6-(3-Methoxy-phenylsulfanyl)-hexanoic acid]
% Glucose Reduction (Blood glucose levels; [4]): −19.4 ± 6.6%

COc1cccc(SCCCCCCCC(=O)O)c1 [Compound 22]
% Glucose Reduction (Blood glucose levels; [4]): −3.7 ± 9.4%

O=C(O)CCCCSc1cccc(Cl)c1 [Compound 24, 5-(3-Chloro-phenylsulfanyl)-pentanoic acid]
% Glucose Reduction (Blood glucose levels; [4]): −10.0 ± 17.7%

O=C(O)CCCCSc1ccccc1Cl [Compound 25, 5-(2-Chloro-phenylsulfanyl)-pentanoic acid]
% Glucose Reduction (Blood glucose levels; [4]): −16.0 ± 13.4%

COc1cccc(SCCCC(=O)O)c1 [Compound 27, 4-(3-Methoxy-phenylsulfanyl)-butyric acid]
% Glucose Reduction (Blood glucose levels; [4]): −47.6 ± 17.4%

O=C(O)CCCSc1cccc(Cl)c1 [Compound 29, 4-(3-Chloro-phenylsulfanyl)-butyric acid]
% Glucose Reduction (Blood glucose levels; insulin titration, Delivery Agent 200 mg/kg, Dose of Insulin 0.00 mg/kg): −6.8% | % Glucose Reduction (Blood glucose levels; insulin titration, Delivery Agent 200 mg/kg, Dose of Insulin 0.25 mg/kg): −31.4% | % Glucose Reduction (Blood glucose levels; insulin titration, Delivery Agent 200 mg/kg, Dose of Insulin 0.50 mg/kg): −30.8%

O=C(O)CCCCCSc1cccc(Cl)c1 [Compound 32, 6-(3-Chloro-phenylsulfanyl)-hexanoic acid]
% Glucose Reduction (Blood glucose levels; [4]): −15.2 ± 28.9%

O=C(O)CCCCCCCSc1ccc(Cl)cc1 [Compound 33, 8-(4-Chloro-phenylsulfanyl)-octanoic acid]
melting point: 92 to 93 °C

O=C(O)CCCSc1ccc(Cl)cc1 [Compound 34, 4-(4-Chloro-phenylsulfanyl)-butyric acid]
melting point: 100 to 101 °C

O=C(O)CCCCCSc1ccc(O)cc1 [Compound 35, 6-(4-Hydroxy-phenylsulfanyl)-hexanoic acid]
APTT (mean peak) [2]: 100.0 s | Tmax [2]: 30.0 min | melting point: 92 to 94 °C

O=C(O)CSc1cc(Cl)ccc1Cl [Compound 40, (2,5-dichloro-phenylsulfanyl)-acetic acid]
% Glucose Reduction (Blood glucose levels; [4]): −6.0 ± 17.5%

O=C(O)CSc1ccc(Cl)c(Cl)c1 [Compound 42, (3,4-dichloro-phenylsulfanyl)-acetic acid]
% Glucose Reduction (Blood glucose levels; [4]): −22.1 ± 5.4%

O=C(O)CCSc1ccccc1Cl [Compound 44, 3-(2-Chloro-phenylsulfanyl)-propionic acid]
% Glucose Reduction (Blood glucose levels; [4]): −7.8 ± 16.5%

O=C(O)CCSc1cccc(Cl)c1 [Compound 45, 3-(3-Chloro-phenylsulfanyl)-propionic acid]
% Glucose Reduction (Blood glucose levels; [4]): −6.5 ± 21.2%

O=C(O)CSc1cccc(O)c1 [Compound 46, (3-Hydroxy-phenylsulfanyl)-acetic acid]
% Glucose Reduction (Blood glucose levels; [4]): 0.3 ± 27.7%

O=C(O)CCCSc1cc(Cl)ccc1Cl [Compound 50, 4-(2,5-dichloro-phenylsulfanyl)-butyric acid]
% Glucose Reduction (Blood glucose levels; [4]): −15.8 ± 10.6%

O=C(O)CSc1cccc(F)c1 [Compound 51, (3-Fluoro-phenylsulfanyl)-acetic acid]
% Glucose Reduction (Blood glucose levels; [4]): −24.9 ± 6.2%

O=C(O)CCCSc1ccc(Cl)c(Cl)c1 [Compound 53, 4-(3,4-dichloro-phenylsulfanyl)-butyric acid]
% Glucose Reduction (Blood glucose levels; [4]): −14.8 ± 7.0%

O=C(O)CCCSc1ccccc1F [Compound 54, 4-(2-Fluoro-phenylsulfanyl)-butyric acid]
% Glucose Reduction (Blood glucose levels; [4]): −37.4 ± 26.0%

O=C(O)CSc1ccc(F)cc1 [Compound 55, (4-Fluoro-phenylsulfanyl)-acetic acid]
% Glucose Reduction (Blood glucose levels; [4]): −20.9 ± 17.5%

O=C(O)CCCSc1ccc(F)cc1 [Compound 56]
% Glucose Reduction (Blood glucose levels; [4]): −4.5 ± 11.1%

O=C(O)CCCCCSc1ccc(F)cc1 [Compound 57, 6-(4-Fluoro-phenylsulfanyl)-hexanoic acid]
% Glucose Reduction (Blood glucose levels; [4]): −11.0 ± 15.7%

Cc1ccc(C)c(SCC(=O)O)c1 [Compound 58, (2,5-Dimethyl-phenylsulfanyl)-acetic acid]
% Glucose Reduction (Blood glucose levels; [4]): −18.2% | melting point: 73 to 74 °C
